Measured values: PMC7139830, “Drug Conjugation Induced Modulation of Structural and Membrane Interaction Features of Cationic Cell-Permeable Peptides” (International Journal of Molecular Sciences, 2020)
Read-outs that look alike come from different tables or passages of the source.

Experiments:
[1] = Analytical RP-HPLC retention time on C-18 column as indicator of polarity; format: physicochemical; conditions: chromatographic, YMC-Pack ODS-A C18 (5 µm, 120 Å) 150 × 4.6 mm; gradient 5% B 2 min, 5%–100% B 20 min; A 0.1% TFA in water, B 0.1% TFA in acetonitrile/water 80/20; 1 mL/min; UV 220 nm
Excerpt: Cationic membrane active peptides and their INH-derivatives were synthesized in good yields, using previously described methods. Peptides were characterized with their monoisotopic molecular mass (M), retention time on a C-18 RP-HPLC column (Rt), estimated hydrophilicity values (H) and net charge (z) (see Table 1). Peptides are listed according to their retention times, which are the indicator of their polarity. […] This order of peptides’ polarity is almost equal to the relative hydrophilicity estimated from the amino acid composition. […] That might be the result of decreased charge due to INH coupling at the N-terminal, although the addition of INH molecule is expected to increase the polarity of the conjugate.
Purified peptides were analyzed by RP-HPLC, on an analytical C-18 column, using gradient elution with the abovementioned eluent A and B (flow rate was 1 mL/min, UV detection at λ = 220 nm). Molecular mass of the peptides was determined on a Thermo Scientific Q Exactive™ Focus Hybrid Quadrupole-Orbitrap™ Mass Spectrometer (ThermoFisher Scientific, Waltham, MA, USA).

[2] = AFM imaging of penetrated DPPC lipid layer; format: physicochemical; conditions: DPPC monolayer, AFM cross-section profiles
Excerpt: At the end of the membrane affinity measurements, the penetrated monolayers were transferred to a previously cleaned cover glass, to study the structural changes of the membranes by atomic force microscopy (Figure 5 and Figure 6). The surface of the original DPPC and mixed DPPC+mycolic acid monolayer is rather smooth, with a morphology described by typical roughness values presented in Table 2. (Ra is the average deviation of all points from a mean level over the evaluation area. Rq (RMS) is the root mean square roughness, while Rz is the average absolute value of the five highest peaks and the five lowest valleys over the evaluation area, being sensitive to positive or negative extremes of the image.) Well-defined homogenous lipid islands are formed by the ordered lipid molecules in equilibrium with the less-oriented film with smaller surface density as expected from the surface pressure–area isotherm. Comparing to this, the morphology of the penetrated monolayers was changed. The 3D images provide a visual impression on the surface, while the cross-section profiles allow the measurement of the height differences. […] This morphological change can also be expressed by the roughness factors determined by analyzing the AFM images (Table 2).
Penetrated Langmuir monolayers were transferred to a previously cleaned hydrophilic cover glass for atomic microscopy measurements. […]

[3] = AFM imaging of penetrated DPPC+mycolic acid lipid layer; format: physicochemical; conditions: DPPC+mycolic acid film, AFM cross-section profiles
[4] = test system: Mycobacterium tuberculosis H37Rv in infected MonoMac-6 human monocytes; format: cell-based
EBC-1 cells = format: cell-based, human

| Substance | Rt, retention time on C-18 RP-HPLC column (indicator of polarity) [1] | other results |
| --- | --- | --- |
| INH-RQIKIWFQNRRMKWKK [INH–Penetratin, isoniazid conjugated to the N-terminus of Penetratin via glyoxylic acid linker] | 11.5 | Height of aggregates / protrusions in penetrated layer [2]: 1–3 nm; Height of aggregates / vertical deviation in penetrated layer [3]: exceeding 3 nm; Intracellular antitubercular activity [4]: efficient candidate against intracellular Mycobacterium tuberculosis |
| INH-TKPKGTKPKGTKPKGTKPKG [INH–OT20, isoniazid conjugated to the N-terminus of OT20 via glyoxylic acid linker] | 7.0 | – |
| GIGKFLHSAKKFGKAFVGEIMNS [Magainin II, antimicrobial peptide isolated from amphibians] | 12.8 | – |
| TKPKGTKPKGTKPKGTKPKG [OT20, synthetic oligomer of Tuftsin, cationic carrier peptide] | 6.7 | – |
| INH-KRLFKKLLFSLRKY [INH–Dhvar4, isoniazid conjugated to the N-terminus of Dhvar4 via glyoxylic acid linker] | 12.8 | – |
| CM15 | 13.7 | – |
| Transportan | – | Subcellular localization (EBC-1 cells): mostly vesicular localization |
| RAGLQFPVGRVHRLLRK [Buforin II (5–21), antimicrobial peptide isolated from amphibians] | 10.9 | – |
| KRLFKKLLFSLRKY [Dhvar4, synthetic derivative of Histatin, a salivary histidine-rich cationic AMP] | 11.8 | – |
| RQIKIWFQNRRMKWKK [Penetratin, cell-penetrating peptide] | 10.9 | Subcellular localization (EBC-1 cells; Cf-labeled peptides, 60 min incubation, EBC-1 cells, confocal microscopy): diffused intracellular distribution |
| INH-RAGLQFPVGRVHRLLRK [INH–Buforin II (5–21), isoniazid conjugated to the N-terminus of Buforin II (5–21) via glyoxylic acid linker] | 11.0 | – |
| INH-GIGKFLHSAKKFGKAFVGEIMNS [INH–Magainin II, isoniazid conjugated to the N-terminus of Magainin II via glyoxylic acid linker] | 13.3 | – |
